The values below come from patent publication US4806554A, “Pyrazol and indazolpyridinamines” (Hoechst-Roussel Pharmaceuticals, Inc., priority 1988, dated 1989).

Each structure is given as a SMILES string. Where two headings read alike, the source gives them in different places.

In assay [1] the test system is tetrabenazine-induced ptosis in mice. The assay can be described thus: Prevention of tetrabenazine-induced ptosis in mice (antidepressant activity). Type of assay: in vivo. The following applies: Mus musculus, po, read-out: ED50 (antidepressant activity). From the text:
The test method and results are described below.
PREVENTION OF TETRABENAZINE-INDUCED PTOSIS IN MICE
Tetrabenazine (TBZ) induces behavioral depression with concomitant ptosis in mice similar to reserpine. Antidepressant compounds, both monoamineoxidase inhibitors and tricyclics, are known to prevent or antagonize these effects and the degree of antagonism correlates with clinical efficacy. The prevention of TBZ-induced ptosis in mice is used as a preliminary screen for possible antidepressant activity. The method used in this invention is as follows:
Male mice weighing 20 to 30 grams are used in test groups of five subjects. All compounds are dissolved or suspended with a suitable surfactant in distilled water and administered in volumes of 10 ml/kg of body weight. TBZ solution is made from the methanesulfonate salt and the concentration is adjusted to enable administration of 60 mg/kg of base by intraperitoneal (i.p.) injection.
The pretreatment time is measured from the time of dosing to observation. Therefore, when a 30-minute pretreat is utilized, drug and TBZ are given simultaneously. A control group received solvent and TBZ at intervals identical to drug group. For a primary screen, the drug is administered i.p. and a group size of five is utilized. Eight animals/group are used for a dose range.
The total score for each group of five in a primary screen will, therefore, be from 0 to 20 and these scores are used as indications of drug activity.
The vehicle control group score is used as a determinant of the validity of each test. […] The calculation of percent inhibition of ptosis is: [formula]

In assay [2] the test system is 2-phenyl-1,4-benzoquinone-induced writhing in mice. The assay can be described thus: 2-phenyl-1,4-benzoquinone-induced writhing (PQW) test in mice (analgesia). In kind it is in vivo. The following applies: s.c. An excerpt: Compounds I of the present invention are also useful as analgesic agents due to their ability to alleviate pain in mammals. […] Exptl. Biol. Med., 95, 729(1957)] and in modified Haffner's analgesia.
In general terms: An intraperitoneal irritant provokes the stretching counted in writhing tests.

For assay [3], the system named is sensitivity of mice to pressure stress (artery clip on tail). The assay can be described thus: Modified Haffner's analgesia (artery clip on tail). In kind it is in vivo, mice (Charles River. The settings on record: Mus musculus, sc; at peak time of drug activity; male CD-1 mice. An excerpt:
The latter assay is used to evaluate analgesic activity by measuring drug-induced changes in the sensitivity of mice to pressure stress by placing an artery clip (21/2 inches long) on their tail. The procedure used is a modification of the test developed by Haffner, Dtsch. Med. Wschr. 55, 731 (1929), and it is described below:
Male mice (Charles River, CD-1) from 18-30 grams are used for the test. An artery clip is applied to the root of the tail of a mouse (approximately 1/2 inch from the body) to induce pain. The animals quickly responds to this noxious stimuli by biting the clip or the location of the clip. This reaction time, the interval between stimulus onset and response, is recorded on 1/10 second increments by a stop watch.
For a time response, the screening dose (25 mg/kg) is administered subcutaneously (10 ml/kg) to the animal receiving food and water ad libitum before testing. […]
The cut-off time (CO) is determined by taking the (x) average +3 standard (SD) deviation of the combined response latencies of the control mice in all time periods.
Any reaction time, in subsequent drug tests, which is greater than the CO (for the same time period) therefore exceeds 99% of normal Gaussian distribution and is called "positive response" indicative of analgesic activity. […] The ED50 is determined at the peak time of drug activity. […] ED50 's are calculated using computer analysis.

As a reminder, the ED50 is the midpoint of the dose-response relation. As for `CNCCCN1c2ccccc2CCc2ccccc21` [Desipramine, reference compound], the ED50 in assay [1] was 2.3 mg/kg.
Regarding `CCCN(c1ccncc1)n1ncc2ccccc21.O=C(O)/C=C\C(=O)O` [N-(Propyl)-N-(4-pyridinyl)-1H-indazol-1-amine maleate], the ED50 in assay [1] (TBZ 60 mg/kg i.p., male mice) was found to be 8.5 mg/kg. The “PQW (% Inhibition of writhing)” value in assay [2] (at 20 mg/kg) amounted to 62%.
As to `CC(C)=CCN1CCC2(C)c3cc(O)ccc3CC1C2C` (centres unmarked) [Pentazocin, reference compound], the “PQW (% Inhibition of writhing)” value in assay [2] (at 1.3 mg/kg) worked out at 50%. Also, in assay [3], the 50% effect level (ED50) was put at a dose of 3.9 mg/kg.
For the compound `O=C(O)/C=C\C(=O)O.c1ccc2c(c1)cnn2Nc1ccncc1` [N-(4-Pyridinyl)-1H-indazol-1-amine maleate], the ED50 came out at 2.7 mg/kg in assay [1] (TBZ 60 mg/kg i.p., male mice) and 10.4 mg/kg in assay [3]. In addition, in assay [2] (at 0.7 mg/kg), the “PQW (% Inhibition of writhing)” value amounted to 50%.
